Each structure is given as a SMILES string.

The target in assay [1] is Cy5-labelled Mcl1 (amino acids 171-321) C286S protein (UniProtKB Q07820) (Homo sapiens (Human), UniProt Q07820, C286S). Nature of the assay: Inhibition of Mcl-1 by the fluorescence quenching assay (Example A, Method B). The assay is classed as binding. The method in brief: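 Cy5-labelled Mcl1 171-321 C286S (1 nM) quenched by TQ5WS-labelled PUMA peptide (10, 20 or 400 nM); displacement raises fluorescence (Ex 620/Em 680 nm). Buffer 10 mM HEPES, 150 mM NaCl, 0.05% Tween 20, pH 7.4, 5% DMSO; 2 h at room temperature, 11-point curves, IC50 converted to Ki (cKi/eKi).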
Cy5-labelled Mcl1 (amino acids 171-321) C286S protein, sequence (Q07820 171-321 C286S): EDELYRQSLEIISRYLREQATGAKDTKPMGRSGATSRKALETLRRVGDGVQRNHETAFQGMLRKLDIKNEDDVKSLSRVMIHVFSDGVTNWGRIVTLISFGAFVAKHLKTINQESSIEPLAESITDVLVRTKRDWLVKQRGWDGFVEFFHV

Assay [2] relates to H929 multiple myeloma tumor line. Nature of the assay: In vitro cytotoxicity, MTT assay (Example B, Method A). The assay is classed as cell-based. The following applies: Homo sapiens, NCI-H929, 48 h, H929 cells, 48 hours exposure, read-out: C50. The procedure: The cytotoxicity studies were carried out on the H929 multiple myeloma tumor line.
The cells are distributed onto microplates and exposed to the test compounds for 48 hours. The cell viability is then quantified by a colorimetric assay, the Microculture Tetrazolium Assay (Carmichael et al, Cancer Res. 1987, 47, 939-942).
The results are expressed in C50 which means concentration corresponding to […] of effect/inhibition.

For `C[C@@H](COc1ncnc2c1[C@H](C)CC2)CC1Cc2ccccc2[C@]12CC[C@@](Nc1cccc(Cl)c1)(C(=O)O)CC2` (stereo partly drawn) [Example 597, (1r,4R)-4-(3-chloroanilino)-2′-[(2R)-2-methyl-3-{[(5R)-5-methyl-6,7-dihydro-5H-cyclopenta[d]pyrimidin-4-yl]oxy}propyl]-2′,3′-dihydrospiro[cyclohexane-1,1′-indene]-4-carboxylic acid], in assay [1], the Ki is 5.36 nM. In assay [2], the IC50 worked out at 1310 nM.
In the same order, the values of `C[C@@H](COc1ccnc2c1CCC2)C[C@@H]1Cc2ccccc2[C@]12CC[C@@](Nc1cccc(Cl)c1)(C(=O)O)CC2` [Example 598, (1r,2′R,4R)-4-(3-chloroanilino)-2′-{(2R)-3-[(6,7-dihydro-5H-cyclopenta[b]pyridin-4-yl)oxy]-2-methylpropyl}-2′,3′-dihydrospiro[cyclohexane-1,1′-indene]-4-carboxylic acid] are 4.29 nM and 590 nM.
For `C[C@@H](COc1ccnc2c1CCC2)C[C@H]1Cc2ccccc2[C@]12CC[C@@](Nc1cccc(Cl)c1)(C(=O)O)CC2` [Example 599, (1r,2′S,4S)-4-(3-chloroanilino)-2′-{(2R)-3-[(6,7-dihydro-5H-cyclopenta[b]pyridin-4-yl)oxy]-2-methylpropyl}-2′,3′-dihydrospiro[cyclohexane-1,1′-indene]-4-carboxylic acid], the Ki in assay [1] is 1.05 nM. Also, the IC50 in assay [2] came out at 237 nM.
For `C[C@@H](COc1ccnc2c1CCC2F)C[C@H]1Cc2ccccc2[C@]12CC[C@@](Nc1cccc(Cl)c1)(C(=O)O)CC2` (stereo partly drawn) [Example 603, (1r,2′S,4S)-4-(3-chloroanilino)-2′-{(2R)-3-[(7-fluoro-6,7-dihydro-5H-cyclopenta[b]pyridin-4-yl)oxy]-2-methylpropyl}-2′,3′-dihydrospiro[cyclohexane-1,1′-indene]-4-carboxylic acid], in that order: 8 nM and 1110 nM.
`CC1CC(O)c2nccc(OC[C@H](C)C[C@H]3Cc4ccccc4[C@]34CC[C@@](Nc3cccc(Cl)c3)(C(=O)O)CC4)c21` (stereo partly drawn) [Example 610, (1r,2′S,4S)-4-(3-chloroanilino)-2′-{(2R)-3-[(7-hydroxy-5-methyl-6,7-dihydro-5H-cyclopenta[b]pyridin-4-yl)oxy]-2-methylpropyl}-2′,3′-dihydrospiro[cyclohexane-1,1′-indene]-4-carboxylic acid]: the inhibition constant (Ki) in assay [1] is 0.767 nM. Also, in assay [2], the IC50 came out at 423 nM.
Consider `C[C@@H](COc1ccnc2c1CC(C)(C)C2)C[C@H]1Cc2ccccc2[C@]12CC[C@@](Nc1cccc(Cl)c1)(C(=O)O)CC2` [Example 611, (1r,2′S,4S)-4-(3-chloroanilino)-2′-{(2R)-3-[(6,6-dimethyl-6,7-dihydro-5H-cyclopenta[b]pyridin-4-yl)oxy]-2-methylpropyl}-2′,3′-dihydrospiro[cyclohexane-1,1′-indene]-4-carboxylic acid], for which, in assay [1], the Ki was determined as 12.3 nM. Moreover, in assay [2], the IC50 was 1670 nM.
Take `CC[C@@H]1CCc2nccc(OC[C@H](C)C[C@H]3Cc4ccccc4[C@]34CC[C@@](Nc3cccc(Cl)c3)(C(=O)O)CC4)c21` [Example 612, (1r,2′S,4S)-4-(3-chloroanilino)-2′-[(2R)-3-{[(5R)-5-ethyl-6,7-dihydro-5H-cyclopenta[b]pyridin-4-yl]oxy}-2-methylpropyl]-2′,3′-dihydrospiro[cyclohexane-1,1′-indene]-4-carboxylic acid]: the Ki in assay [1] turned out to be 0.565 nM. The IC50 in assay [2] was 315 nM.
In the same order, the values of `CC[C@H]1CCc2nccc(OC[C@H](C)C[C@H]3Cc4ccccc4[C@]34CC[C@@](Nc3cccc(Cl)c3)(C(=O)O)CC4)c21` [Example 613, (1r,2′S,4S)-4-(3-chloroanilino)-2′-[(2R)-3-{[(5S)-5-ethyl-6,7-dihydro-5H-cyclopenta[b]pyridin-4-yl]oxy}-2-methylpropyl]-2′,3′-dihydrospiro[cyclohexane-1,1′-indene]-4-carboxylic acid] are 18.9 nM and 2360 nM.
Take `C[C@@H](COc1ccnc2ccn(C)c12)C[C@H]1Cc2ccccc2[C@]12CC[C@@](Nc1cccc(Cl)c1)(C(=O)O)CC2` [Example 619, (1r,2′S,4S)-4-(3-chloroanilino)-2′-{(2R)-2-methyl-3-[(1-methyl-1H-pyrrolo[3,2-b]pyridin-7-yl)oxy]propyl}-2′,3′-dihydrospiro[cyclohexane-1,1′-indene]-4-carboxylic acid]: the Ki in assay [1] turned out to be 9.28 nM. The IC50 in assay [2] is 1360 nM.
In the same order, the values of `C[C@@H](CNc1ccnc2ccsc12)C[C@H]1Cc2ccccc2[C@]12CC[C@@](Nc1cccc(Cl)c1)(C(=O)O)CC2` [Example 627, (1r,2′S,4S)-4-(3-chloroanilino)-2′-{(2R)-2-methyl-3-[(thieno[3,2-b]pyridin-7-yl)amino]propyl}-2′,3′-dihydrospiro[cyclohexane-1,1′-indene]-4-carboxylic acid] are 7.36 nM and 1330 nM.
In the case of `C[C@@H](COc1c[nH]c2ccccc12)C[C@H]1Cc2ccccc2[C@]12CC[C@@](Nc1cccc(Cl)c1)(C(=O)O)CC2` [Example 628, (1r,2′S,4S)-4-(3-chloroanilino)-2′-{(2R)-3-[(1H-indol-3-yl)oxy]-2-methylpropyl}-2′,3′-dihydrospiro[cyclohexane-1,1′-indene]-4-carboxylic acid], the inhibition constant Ki in assay [1] stood at 69.9 nM. Moreover, in assay [2], the IC50 was determined as 2400 nM.
As for `C[C@@H](COc1ccnc2c(Cl)cn(C)c12)C[C@H]1Cc2ccccc2[C@]12CC[C@@](Nc1cccc(Cl)c1)(C(=O)O)CC2` [Example 631, (1r,2′S,4S)-4-(3-chloroanilino)-2′-{(2R)-3-[(3-chloro-1-methyl-1H-pyrrolo[3,2-b]pyridin-7-yl)oxy]-2-methylpropyl}-2′,3′-dihydrospiro[cyclohexane-1,1′-indene]-4-carboxylic acid], the Ki in assay [1] worked out at 12.6 nM. For the same molecule, in assay [2], the IC50 is 3170 nM.
As for `C[C@@H](COc1ncnc2c1CCCC2)CC1=Cc2ccccc2[C@]12CC[C@@](Nc1cccc(Cl)c1)(C(=O)O)CC2` [Example 636, (1r,4R)-4-(3-chloroanilino)-2′-{(2R)-2-methyl-3-[(5,6,7,8-tetrahydroquinazolin-4-yl)oxy]propyl}spiro[cyclohexane-1,1′-indene]-4-carboxylic acid], in assay [1], the Ki came out at 16.2 nM. For the same molecule, the IC50 in assay [2] was found to be 3080 nM.
As for `C[C@@H](COc1ncnc2c1CCCC2)C[C@H]1Cc2ccccc2[C@]12CC[C@@](Nc1cccc(Cl)c1)(C(=O)O)CC2` [Example 637, (1r,2′S,4S)-4-(3-chloroanilino)-2′-{(2R)-2-methyl-3-[(5,6,7,8-tetrahydroquinazolin-4-yl)oxy]propyl}-2′,3′-dihydrospiro[cyclohexane-1,1′-indene]-4-carboxylic acid], the inhibition constant Ki in assay [1] was determined as 5.13 nM. Moreover, the IC50 in assay [2] was determined as 1540 nM.
For `C[C@@H](COc1ncnc2c1[C@H](C)CCC2)C[C@H]1Cc2ccccc2[C@]12CC[C@@](Nc1cccc(Cl)c1)(C(=O)O)CC2` [Example 638, (1r,2′S,4S)-4-(3-chloroanilino)-2′-[(2R)-2-methyl-3-{[(5R)-5-methyl-5,6,7,8-tetrahydroquinazolin-4-yl]oxy}propyl]-2′,3′-dihydrospiro[cyclohexane-1,1′-indene]-4-carboxylic acid], in that order: 3.76 nM and 373 nM.

The values are drawn from patent publication US20240150293A1, “SPIROCYCLOHEXANE DERIVATIVES, PHARMACEUTICAL COMPOSITIONS CONTAINING THEM AND THEIR USES AS ANTI-APOPTOTIC INHIBITORS” (LES LABORATOIRES SERVIER, priority 2021, published 2024).
